Source: US5208032A, “Increasing the growth of turkeys using implant of 19-nortestosterone” (Rutgers, The State University of New Jersey, priority 1992, dated 1993)

Columns and labels:
[1] = Comparison of growth on treated male turkeys (Study I, Table V); assay type: in vivo, Large White Nicholas turkeys; set-up: Abdominal Adipose: unit not given here; conditions: intact male; for Feed/Gain Ratio: n = 4; for Right Breast Muscle (%) / Feed Efficiency / Average Daily Gain (%) / Final 10-Week Body Weight (%) / Abdominal Adipose (%): change vs placebo; for Right Breast Muscle (%) / Average Daily Gain (%) / Final 10-Week Body Weight (%): unsigned (increase); for Feed Efficiency: column head prints (g), cells %; for Abdominal Adipose (%): unsigned (decrease)
Protocol: (§1) The same large white strain of turkey (received 1 day posthatching from Nicholas Breeding Farms, CA) was used in all studies. Poults were reared in deep litter brooder pens from 1 day posthatch and exposed to constant light until initiation of Studies I and III or through completion in the case of Study II. Studies I and III were conducted in an environmentally controlled room (photoperiod 12L:12D) with birds housed individually in wire-floored layer cages (space dimensions of 0.31 W×0.46 L×0.53 H meters per cage). Water and feed (Agway Game and Turkey Starter Crumbles) was available at all times. Turkeys were rank ordered by weight and distributed into treatment groups of equal mean body weights at the start of each Study (I, II and III).
(§2) Body weight determinations were made at the second and final week of each study, and several organs and tissues were excised and immediately weighed at the time of necropsy. Final shank-toe length, as an indicator of skeletal growth, was also determined. Birds were sacrificed via exanguination by laceration of the jugular vein. Specific details on the experimental design and conduct of each turkey study will follow.
At 7 weeks of age, forty-nine male turkeys were rank ordered by weight and assigned to 7 treatment groups ([…]) of equal mean weights. Within treatment groups, two birds were individually caged (layer cages measuring 0.31 W×0.46 L×0.53 H meters/cage) side by side on one of three tiers (5 cages/tier and 3 tiers/rack). […] Individual treatment units (or bird sets) were randomized (planned) into cages among tiers and racks to eliminate any rack (5) or tier (3 vertical) effects within the room.
Group 1 control males were implanted with a 50-mg compressed (methylcellulose/lactose) placebo pellet. The remaining 6 treatment groups were as follows: Group 2, 50-mg testosterone pellet; Group 3, 50-mg 5-alpha-DHT pellet; Group 4, 50-mg 19-nortestosterone pellet; Group 5, 5.0-cm testosterone Silastic polysiloxane capsule; Group 6, 5-cm 5-alpha-DHT Silastic polysiloxane capsule and Group 7, 5.0-cm 19-nortestosterone Silastic polysiloxane capsule. Excluding feed efficiency, data means for all parameters were compared between treatments using individual birds as replicates (n=8). Data means for feed efficiency were compared between treatments using sets of birds as replicates (n=4).

[2] = Comparison of growth in treated female turkeys (Study II, Table IV); assay type: in vivo, Large White Nicholas turkeys; set-up: Abdominal Adipose: unit not given here; conditions: intact female; for Feed/Gain Ratio: 6 through 9 weeks; for Abdominal Adipose (%) / Feed/Gain Ratio (%) / Average Daily Gain (%) / Final 9-Week Body Weight (%) / Right Breast Muscle (%): change vs placebo; for Abdominal Adipose (%) / Feed/Gain Ratio (%): unsigned (decrease); for Average Daily Gain (%) / Final 9-Week Body Weight (%) / Right Breast Muscle (%): unsigned (increase)
Protocol: as §1, §2
At 6 weeks of age, seventy-seven female turkeys were rank ordered by weight and assigned to 7 treatment groups (11 birds per group) of equal mean weights. Within treatment groups, birds were further allotted to deep-litter pens (3.66×4.27 m) containing 4 subdivisions (0.91×1.22 m), with 3 birds per subdivision except for the last which contained 2. Individual treatment units (or pen subdivisions) were randomized (planned) among pens within the building, such that each pen contained 4 different treatment units (3 or 2 birds each). Feed consumption for each treatment unit was measured; thus, 4 replicates per treatment for feed consumption and feed/gain ratios (or feed efficiency) were calculated.
Treatments entailed the subcutaneous implantation (between the shoulders) of testosterone, 5-alpha-DHT or 19-nortestosterone as either a low (5-mg) or high (50-mg) dose pellet (Innovative Research of America, Rockville, Md.). Implants were specially constructed (steroid compressed into a methylcellulose/lactose pellet) to release respective steroids at a constant rate over a 21 day period (manufacturer statement). In support, a recent report by Satyaswaroop et al. (1984) on mice, found Innovative Research 17 beta-estradiol pellets to have excellent 21-day continued release characteristics (i.e., maintained blood levels of 20-30 ng/ml for 21 days). Group 1 controls were composed of females implanted with a 50-mg placebo pellet. The remaining 6 female treatment groups were as follows: Group 2, testosterone (5-mg); Group 3, 5-alpha-DHT (5-mg); Group 4, 19-nortestosterone (5-mg); Group 5, testosterone (50-mg); Group 6, 5-alpha-DHT (50-mg) and Group 7, 19-nortestosterone (50-mg). Excluding feed efficiency, data means for all other parameters were compared between treatments using individual birds as replicates (n=11). Data means for feed consumption and feed efficiency were compared between treatments using pen subdivisions (3 or 2 birds/subdivision) as replicates (n=8).
^a 5 or 50mg slow release pellets (Innovative Research) administered
subcutaneously at 6 weeks of age.
^b Data for Feed to Gain Ratio is computed for the period 6 through 9
weeks of age. Experimental units are floor pens (n = 4) of […]
values are means and SEM of the pen averages.

For `C[C@]12CCC(=O)C[C@@H]1CC[C@@H]1[C@@H]2CC[C@]2(C)[C@@H](O)CC[C@@H]12` [5-alpha-DHT, 5-alpha-dihydrotestosterone], the “Abdominal Adipose” value ([1]; 5-cm Silastic capsule) was 12.2 ± 1.44, the “Average Daily Gain” value ([1]; 5-cm Silastic capsule) was 113 ± 3 g and the “Final 10-Week Body Weight” value ([1]; 5-cm Silastic capsule) was 4985 ± 60 g. The “Final 10-Week Shank-Toe Length” value ([1]; 5-cm Silastic capsule) was 24.4 ± 0.15 cm, the “Right Breast Muscle” value ([1]; 5-cm Silastic capsule) was 465 ± 17 g and the “Feed/Gain Ratio” value ([1]; 5-cm Silastic capsule) was 2.30 ± 0.120. The “Right Breast Muscle (%)” value ([1]; 5-cm capsule) was 8.4%, the “Feed Efficiency” value ([1]; 5-cm capsule) was 9.4% and the “Abdominal Adipose” value ([1]; 50-mg pellet) was 9.53 ± 1.12. The “Average Daily Gain” value ([1]; 50-mg pellet) was 120 ± 3 g, the “Final 10-Week Body Weight” value ([1]; 50-mg pellet) was 5202 ± 44 g and the “Final 10-Week Shank-Toe Length” value ([1]; 50-mg pellet) was 24.3 ± 0.28 cm. The “Right Breast Muscle” value ([1]; 50-mg pellet) was 460 ± 10 g, the “Feed/Gain Ratio” value ([1]; 50-mg pellet) was 2.33 ± 0.079 and the “Average Daily Gain (%)” value ([1]; 50-mg pellet) was 10.1%. The “Final 10-Week Body Weight (%)” value ([1]; 50-mg pellet) was 6.0%, the “Right Breast Muscle (%)” value ([1]; 50-mg pellet) was 7.2% and the “Abdominal Adipose” value ([2]; 5-mg pellet) was 21.4. For the same compound, the “Average Daily Gain” value ([2]; 5-mg pellet) was 106 ± 2 g, the “Final 9-Week Body Weight” value ([2]; 5-mg pellet) was 4073 ± 72 g and the “Final 9-Week Shank-Toe Length” value ([2]; 5-mg pellet) was 18.6 ± 0.21 cm. For the same compound, the “Right Breast Muscle” value ([2]; 5-mg pellet) was 415 ± 7 g, the “Feed/Gain Ratio” value ([2]; 5-mg pellet) was 2.03 ± 0.03 and the “Abdominal Adipose (%)” value ([2]; 5-mg pellet) was 28%. The “Abdominal Adipose” value ([2]; 50-mg pellet) was 20.2, the “Average Daily Gain” value ([2]; 50-mg pellet) was 121 ± 3 g and the “Final 9-Week Body Weight” value ([2]; 50-mg pellet) was 4365 ± 84 g. For the same compound, the “Final 9-Week Shank-Toe Length” value ([2]; 50-mg pellet) was 18.79 ± 0.25 cm, the “Right Breast Muscle” value ([2]; 50-mg pellet) was 487 ± 13 g and the “Feed/Gain Ratio” value ([2]; 50-mg pellet) was 1.82 ± 0.03. For the same compound, the “Abdominal Adipose (%)” value ([2]; 50-mg pellet) was 32%, the “Feed/Gain Ratio (%)” value ([2]; 50-mg pellet) was 13.7% and the “Average Daily Gain (%)” value ([2]; 50-mg pellet) was 17.5%. The “Final 9-Week Body Weight (%)” value ([2]; 50-mg pellet) was 8.9% and the “Right Breast Muscle (%)” value ([2]; 50-mg pellet) was 24.9%.

For `C[C@]12CC[C@H]3[C@@H](CCC4=CC(=O)CC[C@@H]43)[C@@H]1CC[C@@H]2O` [19-Nortestosterone, 19-nortestosterone], the “Abdominal Adipose” value ([1]; 5-cm Silastic capsule) was 7.88 ± 2.10, the “Average Daily Gain” value ([1]; 5-cm Silastic capsule) was 131 ± 3 g and the “Final 10-Week Body Weight” value ([1]; 5-cm Silastic capsule) was 5410 ± 73 g. For the same compound, the “Final 10-Week Shank-Toe Length” value ([1]; 5-cm Silastic capsule) was 23.5 ± 0.15 cm, the “Right Breast Muscle” value ([1]; 5-cm Silastic capsule) was 513 ± 15 g and the “Feed/Gain Ratio” value ([1]; 5-cm Silastic capsule) was 1.94 ± 0.041. The “Abdominal Adipose (%)” value ([1]; 5-cm capsule) was 52.8%, the “Average Daily Gain (%)” value ([1]; 5-cm capsule) was 20.2% and the “Final 10-Week Body Weight (%)” value ([1]; 5-cm capsule) was 10.2%. The “Right Breast Muscle (%)” value ([1]; 5-cm capsule) was 12.6%, the “Feed Efficiency” value ([1]; 5-cm capsule) was 23.6% and the “Abdominal Adipose” value ([1]; 50-mg pellet) was 6.74 ± 1.57. The “Average Daily Gain” value ([1]; 50-mg pellet) was 132 ± 6 g, the “Final 10-Week Body Weight” value ([1]; 50-mg pellet) was 5416 ± 136 g and the “Final 10-Week Shank-Toe Length” value ([1]; 50-mg pellet) was 23.3 ± 0.22 cm. The “Right Breast Muscle” value ([1]; 50-mg pellet) was 529 ± 22 g, the “Feed/Gain Ratio” value ([1]; 50-mg pellet) was 1.99 ± 0.091 and the “Abdominal Adipose (%)” value ([1]; 50-mg pellet) was 59.6%. For the same compound, the “Average Daily Gain (%)” value ([1]; 50-mg pellet) was 21.1%, the “Final 10-Week Body Weight (%)” value ([1]; 50-mg pellet) was 10.3% and the “Right Breast Muscle (%)” value ([1]; 50-mg pellet) was 23.3%. The “Feed Efficiency” value ([1]; 50-mg pellet) was 21.6%, the “Abdominal Adipose” value ([2]; 5-mg pellet) was 22.8 and the “Average Daily Gain” value ([2]; 5-mg pellet) was 108 ± 3 g. For the same compound, the “Final 9-Week Body Weight” value ([2]; 5-mg pellet) was 4115 ± 122 g, the “Final 9-Week Shank-Toe Length” value ([2]; 5-mg pellet) was 18.87 ± 0.25 cm and the “Right Breast Muscle” value ([2]; 5-mg pellet) was 439 ± 15 g. The “Feed/Gain Ratio” value ([2]; 5-mg pellet) was 1.92 ± 0.04, the “Abdominal Adipose (%)” value ([2]; 5-mg pellet) was 23% and the “Feed/Gain Ratio (%)” value ([2]; 5-mg pellet) was 9.0%. The “Right Breast Muscle (%)” value ([2]; 5-mg pellet) was 12.6%, the “Abdominal Adipose” value ([2]; 50-mg pellet) was 18.7 and the “Average Daily Gain” value ([2]; 50-mg pellet) was 127 ± 3 g. For the same compound, the “Final 9-Week Body Weight” value ([2]; 50-mg pellet) was 4476 ± 94 g, the “Final 9-Week Shank-Toe Length” value ([2]; 50-mg pellet) was 18.31 ± 0.24 cm and the “Right Breast Muscle” value ([2]; 50-mg pellet) was 493 ± 17 g. The “Feed/Gain Ratio” value ([2]; 50-mg pellet) was 1.76 ± 0.07, the “Abdominal Adipose (%)” value ([2]; 50-mg pellet) was 37% and the “Feed/Gain Ratio (%)” value ([2]; 50-mg pellet) was 16.6%. The “Average Daily Gain (%)” value ([2]; 50-mg pellet) was 23.3%, the “Final 9-Week Body Weight (%)” value ([2]; 50-mg pellet) was 11.6% and the “Right Breast Muscle (%)” value ([2]; 50-mg pellet) was 26.4%.

In the case of `C[C@]12CC[C@H]3[C@@H](CCC4=CC(=O)CC[C@@]43C)[C@@H]1CC[C@@H]2O` [Testosterone, testosterone], the “Abdominal Adipose” value ([1]; 5-cm Silastic capsule) is reported as 13.2 ± 3.57, the “Average Daily Gain” value ([1]; 5-cm Silastic capsule) is reported as 115 ± 2 g and the “Final 10-Week Body Weight” value ([1]; 5-cm Silastic capsule) is reported as 5055 ± 61 g. For the same compound, the “Final 10-Week Shank-Toe Length” value ([1]; 5-cm Silastic capsule) was 24.2 ± 0.18 cm, the “Right Breast Muscle” value ([1]; 5-cm Silastic capsule) was 457 ± 20 g and the “Feed/Gain Ratio” value ([1]; 5-cm Silastic capsule) was 2.39 ± 0.088. The “Abdominal Adipose” value ([1]; 50-mg pellet) was 11.61 ± 1.37, the “Average Daily Gain” value ([1]; 50-mg pellet) was 116 ± 4 g and the “Final 10-Week Body Weight” value ([1]; 50-mg pellet) was 5100 ± 82 g. For the same compound, the “Final 10-Week Shank-Toe Length” value ([1]; 50-mg pellet) was 23.6 ± 0.19 cm, the “Right Breast Muscle” value ([1]; 50-mg pellet) was 450 ± 10 g and the “Feed/Gain Ratio” value ([1]; 50-mg pellet) was 2.37 ± 0.086. The “Abdominal Adipose” value ([2]; 5-mg pellet) was 20.2, the “Average Daily Gain” value ([2]; 5-mg pellet) was 108 ± 2 g and the “Final 9-Week Body Weight” value ([2]; 5-mg pellet) was 4096 ± 65 g. For the same compound, the “Final 9-Week Shank-Toe Length” value ([2]; 5-mg pellet) was 18.9 ± 0.16 cm, the “Right Breast Muscle” value ([2]; 5-mg pellet) was 430 ± 15 g and the “Feed/Gain Ratio” value ([2]; 5-mg pellet) was 2.01 ± 0.05. The “Abdominal Adipose (%)” value ([2]; 5-mg pellet) was 32%, the “Abdominal Adipose” value ([2]; 50-mg pellet) was 22.8 and the “Average Daily Gain” value ([2]; 50-mg pellet) was 119 ± 3 g. The “Final 9-Week Body Weight” value ([2]; 50-mg pellet) was 4320 ± 69 g, the “Final 9-Week Shank-Toe Length” value ([2]; 50-mg pellet) was 18.6 ± 0.13 cm and the “Right Breast Muscle” value ([2]; 50-mg pellet) was 477 ± 17 g. For the same compound, the “Feed/Gain Ratio” value ([2]; 50-mg pellet) was 1.91 ± 0.04, the “Abdominal Adipose (%)” value ([2]; 50-mg pellet) was 23% and the “Feed/Gain Ratio (%)” value ([2]; 50-mg pellet) was 9.5%. For the same compound, the “Average Daily Gain (%)” value ([2]; 50-mg pellet) was 15.5%, the “Final 9-Week Body Weight (%)” value ([2]; 50-mg pellet) was 7.7% and the “Right Breast Muscle (%)” value ([2]; 50-mg pellet) was 22.3%.
